ChEMBL document CHEMBL3832761, “MMV Pathogen Box Bioactivity Data” (2017)

Tests used:
[1] = HL60 CC50 (uM) Cytotoxicity; type: functional; conditions: HL-60
[2] = tested on: HepG2; test: Cytotoxicity data HepG2 CC20 (uM); type: functional
[3] = tested on: Plasmodium falciparum; test: Antimalarial activity: Gametocytes Plasmodium falciparum NF54 Gametocytes Stage V: inhibition at 10 uM (%); type: functional
[4] = tested on: Plasmodium berghei; test: Antimalarial activity: Liver Stage Plasmodium berghei sporozoite Luciferase assay: inhibition at 10 uM (%); type: functional
[5] = tested on: Plasmodium falciparum; test: Antimalarial activity: Asexual Blood Stage Plasmodium falciparum 3D7 IC50 (uM); type: functional, organism-based
[6] = tested on: Plasmodium falciparum; test: Antimalarial activity: Asexual Blood Stage Plasmodium falciparum Dd2 IC50 (uM); type: functional, organism-based
[7] = tested on: Plasmodium falciparum; test: Antimalarial activity: Asexual Blood Stage Plasmodium falciparum W2 IC50 (uM); type: functional, organism-based
[8] = tested on: HepG2; test: HepG2 inhibition at 10 uM (%) Cytotoxicity; type: functional; conditions: Homo sapiens
[9] = tested on: Plasmodium berghei; test: Antimalarial activity: Liver Stage Plasmodium berghei sporozoite Luciferase assay IC50 (uM); type: functional, organism-based
[10] = tested on: HepG2; test: HepG2 CC50 (uM) Cytotoxicity; type: functional; conditions: Homo sapiens

SMILES	CC50 [1] [nM]	CC20 [2] [nM]	Inhibition [3] [%]	Inhibition [4] [%]	IC50 [5] [nM]	IC50 [6] [nM]	IC50 [7] [nM]	inhibition at 10 µM [8] [%]	IC50 [9] [nM]	CC50 [10] [nM]
CCCNC(=O)N1CCC2(CC1)CC(=O)c1cc(C)ccc1O2	> 50000	>80000	1	3	2060	3120	1570	0		
CC(C)(C)c1cc(C(=O)N2CCN(c3nccnc3C#N)CC2)n(Cc2ccccc2)n1	> 50000	22900	8	42	600	1000	1300	0		
CS(=O)(=O)c1cccc(-c2cnc3[nH]cc(-c4ccc(CCC(=O)O)cc4)c3c2)c1	> 50000	>80000	38	47	500	680	910	16		
COc1cccc2c(C)nc(N=C(N)N)nc12	> 50000	8380	0	42	1060	> 2000		20		
CC(C)(C)CN1C(=O)C(c2ccccc2)(c2ccccc2)N=C1N	6500	1170	2	25	800	1500	> 2000	0		
Nc1ncc(-c2cn[nH]c2)cc1-c1nc2cc(Cl)cnc2[nH]1	> 50000	2820	0	0	400			7		
CC(C)(C)c1cc(C(=O)Nc2cccnc2)cc(C(=O)Nc2cccnc2)c1	> 50000	17200	10	12	900	1630	1880	19		
O=C1COCc2ccc(Br)cc2N1Cc1ccc(C(F)(F)F)cc1	> 50000	38400	2	2	960	3060	2260	10		
O=C(NCCc1ccccc1)c1cc(-c2cccnc2)cnc1NCC1CC1	> 12500	12900	4	39	1290	2290	1400	5		
CCC(NC(=O)c1ccccc1NC(=O)c1ccc(C)cc1)C(=O)OC (stereo not given)	> 50000		29	0	160			5		
CC(=O)Nc1ccc(NC(=O)c2cc(-c3cc(Cl)ccc3O)n[nH]2)cc1	> 50000	>80000	6	0	350	480	510	7		
Cc1ccc(S(=O)(=O)n2cc(-c3ccnc(N)c3)c3cc(Br)cnc32)cc1		5280	17	99	630	1470	1300		> 6000	> 6000
CN(C)CCNC(=O)N1CCCN(c2ncnc3cc(-c4ccccc4)sc23)CC1		6210	5	73	1580	2910	3850		1970	> 10000
CCCS(=O)(=O)N1CCC(CO)(Cc2ccccc2C(F)(F)F)CC1	> 50000	>80000	19	43	1090	990	1550	0		
O=C(NC1CC1)c1ccc(N2CCC(Cc3ccccc3)CC2)nc1		>80000	28	100	1330	1670	820		1410	> 10000
Cc1ccc(NC(=O)c2cc(S(=O)(=O)NC(C)(C)C)ccc2C)nc1		>80000	2	82	930	2510	1180		7350	> 7500
O=C(NC1CCN(c2ccnc3ccccc23)C1)c1cccc(C(F)(F)F)c1 (stereo not given)		5820	1	99	710	780	2060		6540	> 10000
O=C(Nc1ccnc(-c2cccnc2)n1)c1cc(C(F)(F)F)cc(C(F)(F)F)c1	> 50000	>80000	10	0	1050	> 2000		13		
O=C1N(Cc2cc3ccccc3s2)CC2CN(Cc3ccccc3)CCN12 (stereo not given)		26400	53	100	1160	1260	1330		200	> 10000
CCN(CC)CCCN1CCN(C(=O)c2cccc(-c3noc(C(F)(F)F)n3)c2)CC1	> 50000	>80000	18	4	190	850	310	0		
CC(C)(CN)c1nc(-c2ccc(Cl)c(O)c2)c(-c2ccnc(N)n2)[nH]1		5770	9	100	410	190	1050		320	> 10000
O=C1Nc2ccc(Br)cc2C12NCCc1c2[nH]c2ccccc12 (stereo not given)		19900	38	57	510	410	620		> 10000	> 10000
Nc1nccc2ccc(Oc3ccncc3)cc12		>80000	43	52	230	740	420		> 10000	> 10000
Cc1nnc(NC(=O)c2cn(-c3ccccc3)nc2-c2ccccc2C)o1		920	16	100	710	1500	680		170	> 10000
Cc1cc(C(=O)Nc2ccc(-c3ccccc3)cc2)no1		>80000	24	97	820	1410	540		> 10000	> 10000
OCc1ccc(-c2cncc(Nc3cccc(Cl)c3)c2)cc1	> 25000	20500	5	57	30	10		7		
